Columns and labels:
[1] = both in vitro and in vivo; cited from earlier work
C57BL6/J mice = assay: Sub-chronic cisplatin-induced kidney injury model; type: in vivo; conditions: cisplatin 3 mg/kg for six days
Description: FIG. 1. Schematic representation of the different animal procedures. (A) Acute cisplatin-induced kidney injury. […] (B) Sub-chronic cisplatin-induced kidney injury. […] (C) KW-6002 administration schedule in the acute model. […] (D) KW-6002 administration schedule in the sub-chronic model.
Animal experiments were adapted from 63-64. Animal procedures were performed in 8 to 10 weeks old male C57B16/J mice (Janvier Labs). Mice were fed a laboratory standard diet with water and food ad libitum and were kept under constant environmental conditions with a 12-hour light-dark cycle. Istradefylline (KW-6002; Tocris) was dissolved in a carrier solution consisting in 15% DMSO, 15% cremophor (Sigma), 70% saline solution (vehicle). Cisplatin (Accord Healthcare) was dissolved in saline solution. […] Three days after this single injection, animals were sacrificed by cervical dislocation (FIG. 1A).
Prior sacrifice by cervical dislocation, retro-orbital blood samples were collected in heparinized tubes and centrifuged for 10 min at 2000 rpm at room temperature. Renal function was assessed by Blood urea nitrogen (BUN) measurement using a AU480 Chemistry Analyzer (Beckman Coulter). At the time of sacrifice, kidneys or LLC1 tumors were harvested and stored in either “RNA later” solution (Thermo Fisher), 4% neutral buffered formalin or snap-frozen in liquid nitrogen.
Formalin-fixed and paraffin-embedded sections (3 μm thick) were stained with Hematoxylin and Eosin (Sigma Aldrich) or Periodic Acid-Schiff (Sigma-Aldrich). Slices were scored by a nephropathologist in a blinded manner. A kidney injury score grading scale from 0 to 5 was used to assess the severity of the injury as follow: 0=no lesions, 1=minimal injury characterized by occurrence of necrosis and debris; 2=mild injury with single cell necrosis, pyknotic cells, and apoptosis; 3=moderate injury characterized by tubular distension, vacuolation, and some cellular debris, 4=severe injury with occasional hyaline casts observed, patchy epithelial necrosis in all segments, loss of epithelial lining; and 5=very severe injury characterized by extensive tubular epithelial necrosis in all segments, loss of epithelial layer from many tubules widespread intraluminal cellular debris, and frequent hyaline casts particularly prominent in the medullary region (67).
Total RNA from kidney samples was extracted with phenol/chloroform and subsequently precipitated in isopropanol as described previously (71). Total RNA from cultured renal cells was extracted using RNeasy Mini kit (Qiagen) following manufacturer's recommendations.
Reverse transcription was performed on 1 μg of RNA using high-capacity cDNA reverse transcription kit (Thermo Fisher), according the manufacturer's recommendation. Real time PCR was performed on a StepOne device using Taqman Gene Expression Master Mix (Thermo Fisher), following manufacturer's recommendations. […]

kidney mouse sections = assay: Red Oil staining of kidney mouse sections; type: in vivo; conditions: cisplatin alone
Description: FIG. 6. KW6002 alleviates the cisplatin-induced nephrotoxicity associated with apoptosis, lipid metabolism, and oxidative stress. (A) Tail moment assessed by comet assay; 50 cells/condition were analyzed. (B and C) KW6002 attenuates cisplatin-induced renal lipid accumulation, assessed by Red Oil staining. […] Results are the mean±SEM (n=6-9 mice/group). (F-H) KW6002 attenuated cisplatin-induced oxidative stress in RPTEC/hTERT1 cells. (F and G) Gene expression of Nrf2 (F) and HO1 (G). […] Results are the mean±SEM (n=3 independent experiments).
10 μm frozen kidney mouse sections were fixed with ethanol (60%) then incubated for 15 min with Oil Red O Solution (Fisher Biotech) dissolved in isopropanol. After several washes with ddH2O, samples were incubated 3 min with hematoxylin. Lipid droplets are stained in red whereas nuclei appeared blue. […] RPTEC/hTERT cells were fixed with ethanol (60%) then incubated for 15 min with Oil Red O Solution. The cells were washed three times with ddH2O and incubated 3 min with hematoxylin. Coverslips were rinsed with H2O before mounting on microscope slides using glycerol gelatin aqueous slide mounting medium (Sigma). Quantifications were performed blindly using ImageJ software. […] The resulting red color images were quantified using a custom threshold (0.173 for RPTEC/hTERT cells and 0.140 for kidney stainings).

kidney transcriptome = assay: RNA-Seq of kidney, sub-chronic protocol; type: in vivo, mice; conditions: adjusted p-value<0.01, log 2 fold change±1
Description: RNA-seq libraries (n=5-6/group) were generated from 500 ng of total RNA using Illumina® TruSeq® Stranded mRNA Library Prep Kit v2. Briefly, following purification with poly-T oligo attached magnetic beads, the mRNA was fragmented using divalent cations at 94° C. for 2 min. The cleaved RNA fragments were copied into first-strand cDNA using reverse transcriptase and random primers. Strand specificity was achieved by replacing dTTP with dUTP during the second-strand cDNA synthesis by DNA polymerase I and RNase H. Following the addition of a single “A” base and the subsequent ligation of the adapter on double-stranded cDNA fragments, the products were purified and enriched with PCR [30 s at 98° C.; (10 s at 98° C., 30 s at 60° C., 30 s at 72° C.)×12 cycles; 5 min at 72° C.] to create the cDNA library. Surplus PCR primers were further removed by purification using AMPure XP beads (Beckman Coulter), and the final cDNA libraries were checked for quality and quantified using capillary electrophoresis. Sequencing was performed on the Illumina® Genome Hiseq4000 as single-end 50 base reads following Illumina's instructions. Reads were mapped onto the mm 10 assembly of Mus musculus genome using STAR v2.5.3a (72). Only uniquely aligned reads were kept for further analyses. Quantification of gene expression was performed using HTSeq-count v0.6.1p1 (73) and gene annotations from Ensembl releases 90 and 102 and “union” mode. Read counts were normalized across libraries with the method proposed by Ander et al. (74). Comparisons of interest were performed using the test for differential expression proposed by Love et al. (75) and implemented in the DESeq2 Bioconductor library (v1.16.1). Resulting p-values were adjusted for multiple testing using the Benjamini and Hochberg method (76). RNA-sequencing was performed by Plateforme GenomEast, Institut de Génétique et de Biologie Moléculaire et Cellulaire, UMR 7104 CNRS-UdS/INSERM U964 (Illkirch, France). Sequencing data that support the findings of this study have been deposited in GEO with the primary accession code GSE179247. […]

A1 receptor = biological target: T1, A1 receptor (Rattus norvegicus, UniProt P25099); conditions: rodent models, blockade of A1 receptor; cited from earlier work
T1 construct: host or cells: rodent (rat) in vivo models
T1 sequence (P25099 1-326): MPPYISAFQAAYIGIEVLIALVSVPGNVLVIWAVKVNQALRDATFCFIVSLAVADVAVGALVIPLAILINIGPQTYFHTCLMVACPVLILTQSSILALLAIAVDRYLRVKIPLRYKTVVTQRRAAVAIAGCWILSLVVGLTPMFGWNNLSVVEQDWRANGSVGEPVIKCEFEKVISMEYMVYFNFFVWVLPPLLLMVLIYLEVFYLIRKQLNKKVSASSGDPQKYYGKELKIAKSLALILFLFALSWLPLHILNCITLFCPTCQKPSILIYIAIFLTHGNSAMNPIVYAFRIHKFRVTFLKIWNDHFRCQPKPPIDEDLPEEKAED

mouse model = assay: MSX-3 in cisplatin-induced kidney injury mouse model; type: in vivo; conditions: vs. cisplatin
Source text: FIG. 9. […] (A) BUN quantification. (B) Gene expression of the inflammatory marker Tnfa.

Structure (SMILES): Cn1c(=O)c2c(ncn2C)n(C)c1=O [caffeine]
- anti-tumoral effect of cisplatin [1]: potentiate the anti-tumoral effect of cisplatin

Structure (SMILES): N.N.[Cl][Pt][Cl] [cisplatin, cis-diamminedichloroplatinum (II)]
- histological lesions (C57BL6/J mice): severe histological lesions
- mRNA expression of Il6 (C57BL6/J mice): increased mRNA expression
- mRNA expression of Tnf (C57BL6/J mice): increased mRNA expression
- mRNA levels of KIM-1 (C57BL6/J mice): significantly increased
- mRNA levels of NGAL (C57BL6/J mice): significantly increased
- blood urea nitrogen (BUN) levels (C57BL6/J mice; data not shown): increased blood urea nitrogen (BUN) levels
- lipid droplets in kidney (kidney mouse sections): induced an accumulation of lipid droplets
- genes downregulated in kidney (kidney transcriptome): 2299 genes
- genes upregulated in kidney (kidney transcriptome): 2350 genes
- genes whose expression is impacted in kidney (kidney transcriptome): 4649 genes

Structure (SMILES): CCCn1c(=O)c2[nH]c(C3CCCC3)nc2n(CCC)c1=O [8-cyclopentyl-1,3-dipropylxanthine]
- protection against cisplatin nephrotoxicity (A1 receptor): protective against cisplatin nephrotoxicity

Structure (SMILES): C#CCn1c(=O)c2c(nc(/C=C/c3cccc(OC)c3)n2C)n(CCCOP(=O)([O-])[O-])c1=O.[Na+].[Na+] [MSX-3]
- BUN (mouse model; FIG. 9A): significant reduction of BUN
- mRNA levels of Tnfα (mouse model; FIG. 9B): lower mRNA levels of Tnfα

Structure (SMILES): CCCn1c(=O)c2nc(C34CCC(CCC(=O)O)(CC3)CC4)[nH]c2n(CCC)c1=O [tonapofylline]
- protection against cisplatin nephrotoxicity (A1 receptor): protective against cisplatin nephrotoxicity

Structure (SMILES): CCCn1c(=O)c2[nH]c(C34CC5CC(CC3C5)C4)nc2n(CCC)c1=O [KW-3902]
- protection against cisplatin nephrotoxicity (A1 receptor): protective against cisplatin nephrotoxicity

— US20250161312A1, “A METHOD FOR THE TREATMENT OF CHEMOTHERAPEUTIC DRUG-INDUCED NEPHROTOXICITY” (INSTITUT NATIONAL DE LA SANTÉ ET DE LA RECHERCHE MÉDICALE, priority 2022, published 2025)
